Experimental data reported in patent US5137811A, “Method for diagnosing periodontal diseases with a substrate specific for aminopeptidase activity of periodontopathic bacteria” (Sunstar Kabushiki Kaisha, priority 1986, dated 1992).
Where a SMILES comes first, the peptide text is derived from it. The star is where a group is joined. βNA = c1ccc2cc(N*)ccc2c1; Cbz = O=C(OCc1ccccc1)*

Columns and labels:
[1] = system: Actinobacillus actinomycetemcomitans; assay: Hydrolytic activity of cell suspension on aminopeptidase substrates (Experiment 2); format: cell-based; conditions: four strains, Table 2
Protocol: (§1) The strains of Treponema were anaerobically cultivated using TYGVS media at 37° C. for 7 days, while other bacterial strains were cultivated using brain heart infusion broth at 37° C. for 48 to 72 hours. Each culture was diluted to obtain a bacterial cell suspension, the absorption at 660 nm of which was 1.0.
(§2) Substrate compounds for aminopeptidase enzyme having various color developing groups derived from β-naphthylamine were dissolved in 0.1M Tris-HCl buffer (pH 7.0) at the concentration of 0.2 mM to obtain substrate solutions.
(§3) To the substrate solution (1.5 ml) was added the above cell suspension (0.3 ml) and reacted at 37° C. for 60 minutes. After completion of the reaction, a coloring reagent [prepared by dissolving diazonium salt of Garnet GBC in 1M acetate buffer (containing 10% Tween 20, pH: 4.2) at the concentration of 0.5 mg/ml] was added and, after 15 minutes, the absorption at 525 nm was determined with a spectrophotometer.
(§4) On the basis of the average amount of released β-naphthylamine in each strain, the hydrolytic activity was expressed as follows: […]
(§5) According to the same manner as described in Experiment 1, periodontopathic bacteria specific aminopeptidase activity was tested by using four strains of Treponema denticola, five strains of B. gingivalis, three strains of B. intermedius, two strains of B. melaninogenicus, two strains of Actinomyces israelli, four strains of Actinobacillus actinomycetemcomitans and three strains of Fusobacterium nucleatum. Abbreviations used in Table 2 mean the following substrate compounds.

[2] = system: B. gingivalis; assay: as above; format: cell-based; conditions: five strains, Table 2
Protocol: as §1, §2, §3, §4, §5

[3] = system: Treponema denticola; assay: as above; format: cell-based; conditions: four strains, Table 2
Protocol: as §1, §2, §3, §4, §5

[4] = system: B. intermedius; assay: as above; format: cell-based; conditions: three strains, Table 2
Protocol: as §1, §2, §3, §4, §5

[5] = system: B. melaninogenicus; assay: as above; format: cell-based; conditions: two strains, Table 2
Protocol: as §1, §2, §3, §4, §5

[6] = system: Fusobacterium nucleatum; assay: as above; format: cell-based; conditions: three strains, Table 2
Protocol: as §1, §2, §3, §4, §5

[7] = system: Actinomyces israelli; assay: as above; format: cell-based; conditions: two strains, Table 2
Protocol: as §1, §2, §3, §4, §5

[8] = system: B. corporis; assay: as above; format: cell-based; conditions: Table 2
Protocol: as §1, §2, §3, §4, §5

[9] = system: B. denticola; assay: as above; format: cell-based; conditions: Table 2
Protocol: as §1, §2, §3, §4, §5

[10] = system: Bacteroides gingivalis; assay: Hydrolytic activity of oral anaerobe cell suspension on aminopeptidase substrates (Experiment 1); format: cell-based; conditions: five strains, substrate 0.2 mM, pH 7.0, 37° C., 60 minutes, Table 1
Protocol: (§6) Oral anaerobes, i.e., four strains of Treponema denticola, five strains of B. gingivalis, four strains of Actinobacillus actinomycetemcomitans, four strains of Capnocytophaga sp. and three strains of Fusobacterium nucleatum were tested for hydrolytic activity to the substrate of aminopeptidase enzyme as follows.
as §1, §2, §3, §4

[11] = system: Actinobacillus actinomycetemcomitans; assay: as above; format: cell-based; conditions: four strains, substrate 0.2 mM, pH 7.0, 37° C., 60 minutes, Table 1
Protocol: as §6, §1, §2, §3, §4

[12] = system: Treponema denticola; assay: as above; format: cell-based; conditions: four strains, substrate 0.2 mM, pH 7.0, 37° C., 60 minutes, Table 1
Protocol: as §6, §1, §2, §3, §4

[13] = system: Capnocytophaga sp.; assay: as above; format: cell-based; conditions: four strains, substrate 0.2 mM, pH 7.0, 37° C., 60 minutes, Table 1
Protocol: as §6, §1, §2, §3, §4

[14] = system: Fusobacterium nucleatum; assay: as above; format: cell-based; conditions: three strains, substrate 0.2 mM, pH 7.0, 37° C., 60 minutes, Table 1
Protocol: as §6, §1, §2, §3, §4

[15] = system: periodontopathic bacteria specific aminopeptidase activity; assay: Hydrolytic activity of gingival crevicular fluid specimens, visually evaluated (Experiment 5); format: biochemical; set-up: key: -: orange; +: dark orange; ++: brown; +++: dark brown
Protocol: as §2, §3
Specimens of gingival crevicular fluid were collected with paper points from five subjects who were considered to be healthy from their clinical state, six subjects with gingivitis and six subjects with periodontitis. Each specimen was dispersed in Ringer's solution (1.5 ml), and the relative amount of spirochete to total bacteria: [formula] was determined with a phase contrast microscope. Further, the Ringer's solution (0.3 ml) was tested for hydrolytic activity using the substrate solution prepared in the same manner as described in Experiment 1. As substrates, there were used compounds of the formula [1], i.e., N-benzoylvalyl-glycyl-arginine-β-naphthylamide (BzVGR) and N-carbobenzoxy-valyl-glycyl-arginine-β-naphthylamide (CxVGR) were used.
In table 4, hydrolytic activity was visually evaluated and expressed as follows: […]
According to the same manner as described in Experiment 4, hydrolytic activity was tested by using the compounds of the formula [2], i.e., lysyl-proline-β-naphthylamide (KP) and N-carbobenzoxy-prolyl-alanyl-glycylproline-β-naphthylamide (CxPAGP) as the substrates.

Compound	hydrolytic activity (average amount of released β-naphthylamine) [1]	hydrolytic activity (average amount of released β-naphthylamine) [2]	hydrolytic activity (average amount of released β-naphthylamine) [3]	hydrolytic activity (average amount of released β-naphthylamine) [4]	hydrolytic activity (average amount of released β-naphthylamine) [5]	hydrolytic activity (average amount of released β-naphthylamine) [6]	hydrolytic activity (average amount of released β-naphthylamine) [7]	hydrolytic activity (average amount of released β-naphthylamine) [8]	hydrolytic activity (average amount of released β-naphthylamine) [9]	hydrolytic activity (average amount of released β-naphthylamine) [10]	hydrolytic activity (average amount of released β-naphthylamine) [11]	hydrolytic activity (average amount of released β-naphthylamine) [12]	hydrolytic activity (average amount of released β-naphthylamine) [13]	hydrolytic activity (average amount of released β-naphthylamine) [14]	also measured
C[C@H](N)C(=O)Nc1ccc2ccccc2c1 [A, alanine-β-naphthylamide, reference compound]	- (release amount<5 nmol/ml)	- (release amount<5 nmol/ml)	- (release amount<5 nmol/ml)	- (release amount<5 nmol/ml)	- (release amount<5 nmol/ml)	- (release amount<5 nmol/ml)	- (release amount<5 nmol/ml)	- (release amount<5 nmol/ml)	- (release amount<5 nmol/ml)	- (release amount<5 nmol/ml)	- (release amount<5 nmol/ml)	- (release amount<5 nmol/ml)	+++ (release amount≥40 nmol/ml)	- (release amount<5 nmol/ml)	
C[C@H](NC(=O)[C@@H]1CCCN1C(=O)OCc1ccccc1)C(=O)NCC(=O)N1CCC[C@H]1C(=O)Nc1ccc2ccccc2c1 [CxPAGP, N-carbobenzoxy-prolyl-alanyl-glycyl-proline-β-naphthylamide] (Cbz-PAGP-βNA)	- (release amount<5 nmol/ml)	+ (10 ≤release amount<20 nmol/ml)	+++ (release amount≥40 nmol/ml)	+++ (release amount≥40 nmol/ml)	+++ (release amount≥40 nmol/ml)	- (release amount<5 nmol/ml)	- (release amount<5 nmol/ml)	++ (20 ≤release amount<40 nmol/ml)	+++ (release amount≥40 nmol/ml)						hydrolytic activity, visually evaluated ([15]; Gingivitis subject 1 (spirochete 7.3 %)): +; hydrolytic activity, visually evaluated ([15]; Gingivitis subject 2 (spirochete 16.7 %)): +; hydrolytic activity, visually evaluated ([15]; Gingivitis subject 3 (spirochete 20.5 %)): ++; hydrolytic activity, visually evaluated ([15]; Gingivitis subject 4 (spirochete 6.8 %)): -; hydrolytic activity, visually evaluated ([15]; Gingivitis subject 5 (spirochete 7.3 %)): -; hydrolytic activity, visually evaluated ([15]; Gingivitis subject 6 (spirochete 14.4 %)): +; hydrolytic activity, visually evaluated ([15]; Healthy subject 1 (spirochete 0.1 %)): -; hydrolytic activity, visually evaluated ([15]; Healthy subject 2 (spirochete 2.5 %)): +; hydrolytic activity, visually evaluated ([15]; Healthy subject 3 (spirochete 1.1 %)): -; hydrolytic activity, visually evaluated ([15]; Healthy subject 4 (spirochete 0.6 %)): -; hydrolytic activity, visually evaluated ([15]; Healthy subject 5 (spirochete 1.3 %)): -; hydrolytic activity, visually evaluated ([15]; Periodontitis subject 1 (spirochete 45.2 %)): +++; hydrolytic activity, visually evaluated ([15]; Periodontitis subject 2 (spirochete 30.3 %)): +++; hydrolytic activity, visually evaluated ([15]; Periodontitis subject 3 (spirochete 34.6 %)): +++; hydrolytic activity, visually evaluated ([15]; Periodontitis subject 4 (spirochete 21.2 %)): +++; hydrolytic activity, visually evaluated ([15]; Periodontitis subject 5 (spirochete 40.3 %)): +++; hydrolytic activity, visually evaluated ([15]; Periodontitis subject 6 (spirochete 35.1 %)): +++
NCC(=O)Nc1ccc2ccccc2c1 [G, glycine-β-naphthylamide, reference compound]	- (release amount<5 nmol/ml)	- (release amount<5 nmol/ml)	- (release amount<5 nmol/ml)	- (release amount<5 nmol/ml)	- (release amount<5 nmol/ml)	- (release amount<5 nmol/ml)	- (release amount<5 nmol/ml)	- (release amount<5 nmol/ml)	- (release amount<5 nmol/ml)	- (release amount<5 nmol/ml)	- (release amount<5 nmol/ml)	- (release amount<5 nmol/ml)	+ (10 ≤release amount<20 nmol/ml)	- (release amount<5 nmol/ml)	
NCCCC[C@H](N)C(=O)Nc1ccc2ccccc2c1 [K, lysine-β-naphthylamide, reference compound]	- (release amount<5 nmol/ml)	- (release amount<5 nmol/ml)	- (release amount<5 nmol/ml)	- (release amount<5 nmol/ml)	- (release amount<5 nmol/ml)	- (release amount<5 nmol/ml)	- (release amount<5 nmol/ml)	- (release amount<5 nmol/ml)	- (release amount<5 nmol/ml)	- (release amount<5 nmol/ml)	- (release amount<5 nmol/ml)	- (release amount<5 nmol/ml)	+++ (release amount≥40 nmol/ml)	- (release amount<5 nmol/ml)	
N=C(N)NCCC[C@H](N)C(=O)Nc1ccc2ccccc2c1 [R, arginine-β-naphthylamide, reference compound]	- (release amount<5 nmol/ml)	- (release amount<5 nmol/ml)	- (release amount<5 nmol/ml)	- (release amount<5 nmol/ml)	- (release amount<5 nmol/ml)	- (release amount<5 nmol/ml)	- (release amount<5 nmol/ml)	- (release amount<5 nmol/ml)	- (release amount<5 nmol/ml)	- (release amount<5 nmol/ml)	- (release amount<5 nmol/ml)	- (release amount<5 nmol/ml)	+++ (release amount≥40 nmol/ml)	- (release amount<5 nmol/ml)	
